Key:
SCC-1 cells = experiment: Growth curves of SCC-1 cells (viable cell counts, hemacytometer); format: cell-based, human; settings: 10^-6 M OGF
Description: The SCC-1 (UM-SCC-1) cell line was obtained from the University of Michigan Cancer Research Laboratory, and CAL-27 and SCC-4 cells were obtained from the American Type Culture Collection (Manassas, Va.). SCC-1 and CAL-27 cells were cultured in DMEM media, whereas SCC-4 cells were grown in 1:1 Hams F-12 DMEM media. All media was supplemented with 10% fetal bovine serum (HyClone, Logan, Utah), 1.2% sodium bicarbonate, and 5000 units/ml penicillin, 5 μg/ml streptomycin and 10 μg/ml neomycin. OGF was purchased from Sigma-Aldrich (St. Louis, Mo.), dissolved in sterile water, and used at a final concentration of 10^−6 M.
Cell growth and flow cytometry. For growth curves, cells were seeded in 6-well plates at an initial density of ˜2×10^5 cells/well. Fresh media and OGF were added 24 h after initial seeding, and media and OGF were replaced daily. At appropriate times, the cells were washed with PBS, trypsinized, and viable cell numbers were counted by trypan blue exclusion using a hemacytometer.

Rb protein = experiment: Western blot of Rb and phospho-Rb in synchronized BxPC-3 cells; format: cell-based, human
Description: (§1) Synchronized cells (2×10^6) from each treatment were solubilized in 200 μl RIPA buffer (1×PBS, 10 μM IGEPAL, 1 mg/ml SDS, 5 mg/ml deoxycholic acid), containing protease and phosphatase inhibitors (2 μg/ml aprotinin, 3 mg/ml phenylmethyl sulfonyl fluoride, 1 mM sodium orthovanidate, 1 μM okadaic acid). Total protein concentrations were measured using the DC protein assay kit (Bio-Rad Laboratories, Hercules, Calif.). Equal amounts of protein (40 μg) were subjected to 10% SDS-PAGE followed by transfer of proteins onto polyvinylidene difluoride (Millipore, Billerica, Mass.) using standard protocols.
The following antibodies were purchased from commercial sources: phospho-Rb (Ser795), phospho-Rb (Ser807/811) (Cell Signaling Technology, Beverly, Mass.); Cdk2, p57 (Santa Cruz Biotechnology, Santa Cruz, Calif.); p21, p27, total Rb (BD PharMingen, San Diego, Calif.); β-actin (Clone AC-15, Sigma-Aldrich).
Membranes were probed with secondary anti-rabbit or anti-mouse horseradish peroxidase-conjugated antibodies (GE Healthcare-Amersham Biosciences, Piscataway, N.J.), and developed using a chemiluminescence Western blotting detection system.
To determine equal loading of total protein samples, blots were re-probed with monoclonal antibody against β-actin at a dilution of 1:2000. If necessary, membranes were processed in stripping buffer (62.5 mM Tris-HCI and 100 mM β-mercaptoethanol/2% SDS, pH 6.7) at 50° C. before being re-probed.
To quantify expression levels or kinase activity, the optical density of each band was determined by densitometry and analyzed by QuickOne (Bio-Rad Laboratories). Each value was normalized to β-actin from the same blot. To report the changes due to OGF treatment, we calculated the fold increase by dividing the normalized value from the OGF treated samples by the normalized value of control samples at each time point; thus, increases due to OGF have values greater than one, and decreases due to OGF have values less than one. For all Western blot analyses, 3 or more independent experiments were performed.

p21 = experiment: Western blot of p21 in PANC-1 cells; format: cell-based, human; settings: synchronized PANC-1 cells, 6 hours
Description: Human pancreatic cancer cell lines BxPC-3, PANC-1, and Capan-2 were obtained from the American Type Culture Collection (Manassas, Va.), and cultured in RPMI, Dulbecco's Modified Medium, or McCoy's 5A medium, respectively. All media were supplemented with 10% fetal bovine serum, 1.2% sodium bicarbonate, and 0.25% antibiotics (5000 units/ml penicillin, 5 μg/ml streptomycin and 10 μg/ml neomycin). OGF was purchased from Sigma-Aldrich (St. Louis, Mo.), dissolved in sterile water, and used at a final concentration of 10^−6 M.
as §1
The p21-targeted siRNAs were obtained from Santa Cruz Biotechnology, and negative control siRNAs were purchased from Ambion (Ambion, Inc., Austin, Tex.). For transfection, 2×10^5 cells per well were seeded in 6-well plates containing 1 ml of media without antibiotics. […]

[1] = tested on: human umbilical vein endothelial cells (HUVEC); experiment: Growth of HUVEC; format: cell-based
Excerpt: Another normal cell line, human umbilical vein endothelial cells (HUVEC) has been subjected to OGF exposure. […] At 96 hr, OGF-treated cultures had 45.9% fewer cells than normal cultures.

[2] = tested on: Rabbit Tenon's Fibroblast cells (RTCFs); experiment: Cell counts of Rabbit Tenon's Fibroblast cells; format: cell-based; settings: 72 hours
Description: OGF in dosages ranging from 10−4 to 10^−7 M were added to 24-well cultures for 72 hours; sterile water served as control. Drug or vehicle, and media were changed daily. Cell counts of Rabbit Tenon's Fibroblast cells (RTCFs) treated with OGF (10^−7 to 10^−5 M) were 28%, 33%, and 37% smaller than controls (p<0.001).

Q: [Met^5]-enkephalin [OGF] was tested. Which “Cell number compared to controls” value (SCC-1 cells; 72 h) did it give?
A: Its value is 87.5%.

Q: What about the “Cell number compared to controls” value (SCC-1 cells; 96 h) of the same substance?
A: The value was 59.0%.

Q: And the mean doubling time (SCC-1 cells; linear regression of growth data)?
A: Its mean doubling time is “approximately 41.3 h”.

Q: And the “level of phospho-Rb (Ser795)” value (Rb protein; 15, 18, and 21 hours, 10^-6 M OGF, significant at 21 hours (p<0.01))?
A: Its value is “decreased”.

Q: And the “phospho-Rb (pSer807/811) levels” value (Rb protein; OGF treatment, Western blot)?
A: Its value is “did not alter”.

Q: What about the “Expression of total Rb protein” value (Rb protein; after 21 hours of OGF treatment) of the same substance?
A: The value was “not decreased”.

Q: What about the “p21 expression relative to control cells” value (p21) of the same substance?
A: The value was “increased p21 expression”.

Q: And the “cell number relative to control cultures” value ([1]; 10^-6 M OGF, 48, 72, and 96 hr)?
A: Its value is “significant (p<0.01) reductions”.

Q: What about the “fewer cells than normal cultures” value ([1]; 10^-6 M OGF, 96 hr) of the same substance?
A: The value was 45.9%.

Q: And the “decrease in cell proliferation compared to RTCFs treated with 10^-6 M OGF” value ([2]; 10^-4 M OGF)?
A: Its value is 22%.

Q: And the “decrease in cell proliferation compared to RTCFs treated with 10^-7 M OGF” value ([2]; 10^-4 M OGF)?
A: The value was 26%.

Q: And the “decrease in proliferation compared to controls” value ([2]; 10^-4 M OGF)?
A: Its value is 47%.

Q: What about the “Cell counts smaller than controls” value ([2]; 10^-5 M OGF) of the same substance?
A: The value was 37%.

Q: What about the “Cell counts smaller than controls” value ([2]; 10^-6 M OGF) of the same substance?
A: Its value is 33%.

Q: What about the “Cell counts smaller than controls” value ([2]; 10^-7 M OGF) of the same substance?
A: Its value is 28%.

Reference: US7807368B2, “Cyclin-dependent kinase inhibitors as targets for opiod growth factor treatment” (priority 2006, dated 2010)
